# Assays:
# [1] = test system: NALM6 (Nalm-6); assay: 4 day co-culture proliferation of huCART19 with RAD001; type: cell-based, human
# Procedure: To evaluate the functionality of CARTs, the T cells are thawed and counted, and viability is assessed by Cellometer. The number of CAR-positive cells in each culture is normalized using non-transduced T cells (UTD). The impact of RAD001 on CARTs was tested in titrations with RAD001, starting at 50 nM. The target cell line used in all co-culture experiments is NALM6 (Nalm-6), a human pre-B cell acute lymphoblastic leukemia (ALL) cell line expressing CD19 and transduced to express luciferase.
# For measuring the proliferation of CARTs, T cells are cultured with target cells at a ratio of 1:1. The assay is run for 4 days, when cells are stained for CD3, CD4, CD8 and CAR expression. The number of T cells is assessed by flow cytometry using counting beads as reference.
# The proliferative capacity of CART cells was tested in a 4 day co-culture assay.
# [2] = test system: NALM6-luc tumors; assay: RAD001 alone on growth of NALM6-luc tumors; type: in vivo, NSG mice; conditions: daily oral dosing of RAD001 alone
# Procedure: NALM6-luc cells: The NALM6 human acute lymphoblastic leukemia (ALL) cell line was developed from the peripheral blood of a patient with relapsed ALL. The cells were then tagged with firefly luciferase. These suspension cells grow in RPMI supplemented with 10% heat inactivated fetal bovine serum.
# Mice: 6 week old NSG (NOD.Cg-PrkdcscidIl2rgtm1Wjl/SzJ) mice were received from the Jackson Laboratory (stock number 005557).
# Tumor implantation: NALM6-luc cells were grown and expanded in vitro in RPMI supplemented with 10% heat inactivated fetal bovine serum. The cells were then transferred to a 15 ml conical tube and washed twice with cold sterile PBS. NALM6-luc cells were then counted and resuspended at a concentration of 10×10^6 cells per milliliter of PBS. The cells were placed on ice and immediately (within one hour) implanted in the mice. NALM6-luc cells were injected intravenously via the tail vein in a 100 μl volume, for a total of 1×10^6 cells per mouse.
# (§1) RAD001 dosing: A concentrated micro-emulsion of 50 mg equal to 1 mg RAD001 was formulated and then resuspended in D5W (dextrose 5% in water) at the time of dosing. Mice were orally dosed daily (via oral gavage) with 200 μl of the desired doses of RAD001.
# (§2) The expansion and pharmacokinetics of RAD001 was tested in NSG mice with NALM6-luc tumors.
# [3] = test system: CAR T cells; assay: In vivo proliferation of humanized CD19 CART cells with and without RAD001 dosing; conditions: RAD001 0.003 mg/kg daily with huCTL019; versus normal level of huCAR19 proliferation
# Procedure: FIGS. 62A and 62B show in vivo proliferation of humanized CD19 CART cells with and without RAD001 dosing. […] Circles denote PBS; squares denote huCTL019; triangles denote huCTL019 with 3 mg/kg RAD001; inverted triangles denote huCTL019 with 0.3 mg/kg RAD001; diamonds denote huCTL019 with 0.03 mg/kg RAD001; and circles denote huCTL019 with 0.003 mg/kg RAD001.
# [4] = test system: CAR-expressing, transduced T cells; assay: CART co-culture with NALM6 cells in the presence of RAD001; type: cell-based; conditions: low doses of RAD001 (nM); 4 days of co-culture with NALM6
# Procedure: CARTs were co-cultured with NALM6 (Nalm-6) cells in the presence of different concentrations of RAD001 (nM). The number of CAR-positive CD3-positive T cells (black) and total T cells (white) was assessed after 4 days of co-culture.
# [5] = test system: CAR T cells; assay: huCAR19 CAR T cell expansion in vivo with RAD001; set-up: species or system NSG mice; conditions: lowest doses of RAD001, daily oral
# Procedure: CAR T cell dosing: Mice were administered 5×10^6 CAR T cells 7 days after tumor implantation. Cells were partially thawed in a 37 degree Celsius water bath and then completely thawed by the addition of 1 ml of cold sterile PBS to the tube containing the cells. The thawed cells were transferred to a 15 ml falcon tube and adjusted to a final volume of 10 mls with PBS. The cells were washed twice at 1000 rpm for 10 minutes each time and then counted on a hemocytometer. T cells were then resuspended at a concentration of 50×10^6 CAR T cells per ml of cold PBS and kept on ice until the mice were dosed. The mice were injected intravenously via the tail vein with 100 μl of the CAR T cells for a dose of 5×10^6 CAR T cells per mouse. Eight mice per group were treated either with 100 μl of PBS alone (PBS), or humanized CD19 CAR T cells.
# as §1
# Based on these doses, huCAR19 CAR T cells were dosed with and without RAD001 to determine the proliferative ability of these cells. The highest dose used was 3 mg/kg based on the levels of RAD001 in the blood 24 hours after dosing. […] Mice were monitored via FACS for T cell expansion. […]
# [6] = RAD001 PK analysis in tumor bearing mice; type: in vivo, NSG mice
# Procedure: as §1
# PK analysis: Mice were dosed daily with RAD001 starting 7 days post tumor implantation. Dosing groups were as follows: 0.3 mg/kg, 1 mg/kg, 3 mg/kg, and 10 mg/kg. Mice were bled on days 0 and 14 following the first and last dose of RAD001, at the following time points for PK analysis: 15 minutes, 30 minutes, 1 hour, 2 hours, 4 hours, 8 hours, 12 hours, and 24 hours.
# as §2
# [7] = test system: r/r B-ALL; conditions: cited from earlier work
Molecule,proliferation of huCART19 cells ([1]; 0.0032 and 0.016 nM RAD001),RAD001 concentration at which huCART19 cells expanded ([1]; lesser extent at higher concentrations),growth of NALM6-luc tumors [2],CAR T cell proliferation in vivo [3],"proliferation of CAR-expressing, transduced T cells [4]",proliferation of the CAR T cells in vivo [5],concentration of RAD001 in blood ([6]; 24 hours after the final dose),"concentration at 24 h ([6]; NSG, mouse, whole blood, oral, 24 hours after dosing, 0.3 mg/kg, day 0 and day 14, read-out: RAD001 concentrations in the blood) [nM]","stability in the blood of tumor bearing mice ([6]; mouse, in vivo)",share of relapses that are CD19-negative [7]
"CO[C@H]1C[C@@H]2CC[C@@H](C)[C@@](O)(O2)C(=O)C(=O)N2CCCC[C@H]2C(=O)O[C@H]([C@H](C)C[C@@H]2CC[C@@H](OCCO)[C@H](OC)C2)CC(=O)[C@H](C)/C=C(\C)[C@@H](O)[C@@H](OC)C(=O)[C@H](C)C[C@H](C)/C=C/C=C/C=C/1C [RAD001, everolimus]",higher than observed without the addition of RAD001,less than 0.016 nM,did not have an impact on the growth of NALM6-luc tumors,enhancement in CAR T cell proliferation,enhanced,enhanced proliferation of the CAR T cells,above 10 nM,> 10,fairly stable in the blood,
blinatumomab: bi-specific anti-CD19/CD3 antibody combining an anti-CD19 scFv with an anti-CD3 scFv,,,,,,,,,,about 30%
